In brackets after ≈: the same amount, converted by molar mass.
Experiments:
[1] = system: C. albicans; test: In vitro antifungal activity, MIC by serial agar dilution method (C. albicans); assay type: cell-based; conditions: Sabouraud dextrose agar, 44 hours at 28° C.; for MIC: Candida albicans
Procedure: (§1) Antifungal activities of representative compounds of the present invention were evaluated both in vitro and in vivo. The minimum inhibitory concentrations (MICs) against various fungi were determined by serial agar dilution method using Sabouraud dextrose agar. Thus, approximately 0.003 ml of fungal suspension containing 10^6 cells/ml was applied to the surface of agar plates containing the test antibiotics. The MIC values recorded after the cultures had been incubated for 44 hours at 28° C. are set forth below in Table I.

[2] = system: A. fumigatus; test: In vitro antifungal activity, MIC by serial agar dilution method (A. fumigatus); assay type: cell-based; conditions: Sabouraud dextrose agar, 44 hours at 28° C.; for MIC: Aspergillus fumigatus
Procedure: as §1

[3] = system: Candida albicans A9540; test: In vivo activity against Candida albicans A9540 infection in mice; conditions: A9540, 480 h, male ICR mice, intravenous just after i.v. infection, survival on 20th day, read-out: PD50 (dose that protects 50% of the animals from infection)
Procedure: In vivo activity of compounds of the present invention was tested against Candida albicans A9540 infection in mice. Test organisms were cultured for 18 hours at 28° C. in YGP medium (yeast extract, glucose, peptone, K2 HPO4, MgSO4) and then suspended in saline. Male ICR mice weighing 20 to 24 g were infected intravenously with about 10 times the median lethal dose of the test fungus. The antibiotic at various dose levels was administered to groups of 5 mice each intravenously just after the fungal infection. The dose that protects 50% of the animals from infection (PD50, mg/kg) was calculated from survival rates recorded on the 20th day after the fungal challenge. All control animals died within 7 to 15 days after infection. The PD50 for compounds of Examples 2, 4, and 5 are 18 mg/kg, 11 mg/kg and 8.8 mg/kg, respectively.

[4] = system: T. mentagrophytes; test: In vitro antifungal activity, MIC by serial agar dilution method (T. mentagrophytes); assay type: cell-based; conditions: Sabouraud dextrose agar, 44 hours at 28° C.; for MIC: Trichophyton mentagrophytes
Procedure: as §1

[5] = system: C. neoformans; test: In vitro antifungal activity, MIC by serial agar dilution method (C. neoformans); assay type: cell-based; conditions: Sabouraud dextrose agar, 44 hours at 28° C.; for MIC: Cryptococcus neoformans
Procedure: as §1

[6] = system: calcium ion and calmodulin-dependent cyclic nucleotide phosphodiesterase; conditions: cited from earlier work

Compound	MIC [1]	MIC [2]	ED50 [3]	MIC [4]	MIC [5]	MIC C. albicans [1]	MIC A. fumigatus [2]	MIC T. mentagrophytes [4]	MIC C. neoformans [5]	inhibitor of calcium ion and calmodulin-dependent cyclic nucleotide phosphodiesterase [6]
CNC(=O)[C@@H](C)NC(=O)c1c(C)cc2c(c1O)-c1c(cc3c(c1O)C(=O)c1cc(OC)cc(O)c1C3=O)[C@H](O)[C@H]2O[C@@H]1O[C@H](C)[C@H](NC)[C@H](O[C@@H]2OC[C@@H](O)[C@H](O)[C@H]2O)[C@H]1O [Example 5, Pradimicin A Methylamide]	6.3 µg/mL (≈ 7.38 µM)	6.3 µg/mL (≈ 7.38 µM)	8.8 mg/kg	6.3 µg/mL (≈ 7.38 µM)	1.6 µg/mL (≈ 1.87 µM)	–	–	–	–	–
CN[C@@H]1[C@H](O[C@@H]2OC[C@@H](O)[C@H](O)[C@H]2O)[C@@H](O)[C@H](O[C@H]2c3cc(C)c(C(=O)N[C@H](C)C(=O)NCC(=O)O)c(O)c3-c3c(cc4c(c3O)C(=O)c3cc(OC)cc(O)c3C4=O)[C@@H]2O)O[C@@H]1C [Example 7, Glycyl Pradimicin A]	> 50 µg/mL	> 50 µg/mL	–	> 50 µg/mL	12.5 µg/mL (≈ 13.9 µM)	–	–	–	–	–
CN[C@@H]1[C@H](O[C@@H]2OC[C@@H](O)[C@H](O)[C@H]2O)[C@@H](O)[C@H](O[C@H]2c3cc(C)c(C(=O)N[C@H](C)C(=O)NN)c(O)c3-c3c(cc4c(c3O)C(=O)c3cc(OC)cc(O)c3C4=O)[C@@H]2O)O[C@@H]1C [Example 3, Pradimicin A Hydrazide]	50 µg/mL (≈ 58.5 µM)	25 µg/mL (≈ 29.2 µM)	–	25 µg/mL (≈ 29.2 µM)	3.1 µg/mL (≈ 3.63 µM)	–	–	–	–	–
CN[C@@H]1[C@H](O[C@@H]2OC[C@@H](O)[C@H](O)[C@H]2O)[C@@H](O)[C@H](O[C@H]2c3cc(C)c(C(=O)N[C@H](C)C(N)=O)c(O)c3-c3c(cc4c(c3O)C(=O)c3cc(OC)cc(O)c3C4=O)[C@@H]2O)O[C@@H]1C [Example 4, Pradimicin A Amide]	6.3 µg/mL (≈ 7.5 µM)	6.3 µg/mL (≈ 7.5 µM)	11 mg/kg	12.5 µg/mL (≈ 14.9 µM)	1.6 µg/mL (≈ 1.91 µM)	–	–	–	–	–
Pradimicin A Butylamide [Example 6]	–	–	–	–	–	100 µg/mL	50 µg/mL	100 µg/mL	3.1 µg/mL	–
CC(=O)Cc1cc2c(c(O)c1C(=O)O)-c1cc3c(c(O)c1CC2)C(=O)c1c(O)cc(O)cc1C3=O [KS-619-1]	–	–	–	–	–	–	–	–	–	inhibitor
CN[C@@H]1[C@H](O[C@@H]2OC[C@@H](O)[C@H](O)[C@H]2O)[C@@H](O)[C@H](O[C@H]2c3cc(C)c(C(=O)N[C@H](C)C(=O)N[C@H](C)C(=O)O)c(O)c3-c3c(cc4c(c3O)C(=O)c3cc(OC)cc(O)c3C4=O)[C@@H]2O)O[C@@H]1C [Example 1, D-alanyl Pradimicin A]	25 µg/mL (≈ 27.4 µM)	> 100 µg/mL	–	> 100 µg/mL	6.3 µg/mL (≈ 6.91 µM)	–	–	–	–	–
CN[C@@H]1[C@H](O[C@@H]2OC[C@@H](O)[C@H](O)[C@H]2O)[C@@H](O)[C@H](O[C@H]2c3cc(C)c(C(=O)N[C@H](C)C(=O)N(C)C)c(O)c3-c3c(cc4c(c3O)C(=O)c3cc(OC)cc(O)c3C4=O)[C@@H]2O)O[C@@H]1C [Example 2, Pradimicin A Dimethylamide]	12.5 µg/mL (≈ 14.4 µM)	6.3 µg/mL (≈ 7.26 µM)	18 mg/kg	12.5 µg/mL (≈ 14.4 µM)	1.6 µg/mL (≈ 1.84 µM)	–	–	–	–	–
